# In US12146886B2, “Methods for detecting and treating endometriosis” (The Feinstein Institutes for Medical Research, priority 2018, dated 2024):
# Key:
# [1] = system: ME-SFCs; assay: Long-term study: transient cytokine exposure of ME-SFCs, decidualization 25 days after final treatment (IGFBP-1 ELISA); assay type: cell-based, human; details: for SFC decidualization capacity after transient exposure: FIG. 4A-4B
# Method: (§1) In vitro exposure of ME-SFCs to inflammatory cytokines (e.g. TNFα) reduces decidualization capacity. […] After 24 hrs, culture supernatants were collected and IGFBP-1 protein levels were measured by ELISA. […] Twenty four hours later, the culture supernatants were collected and IGFBP-1 protein levels were measured by ELISA.
# [2] = system: ME-SFCs; assay: Acute exposure of ME-SFCs to inflammatory cytokines, then cAMP decidualization (IGFBP-1 ELISA); assay type: cell-based, human; details: TNFα 1 pg/ml-10 ng/ml; SFCs from a normal subject; 24 hours; cAMP 0.5 mM
# Method: as §1
# [3] = system: SFCs
Substance,SFC decidualization capacity after transient exposure [1],decidualization capacity of SFCs [2],"persistence of decidualization defects (reduced IGFBP1 production) after removal from culture ([1]; TNFα 0.1-1.0 ng/ml on days 0 and 5, decidualization with cAMP alone or cAMP and medroxyprogesterone)",cell viability [3]
IL-1β: inflammatory cytokine,persistent defects,,,
TNFα,persistent defects,dramatically reduces decidualization capacity,at least 25 days,not affected
